Here are results for ten compounds from patent US12606541B2, “PPARg modulators and methods of use” (Eisai R&D Management Co., Ltd., priority 2020, dated 2026).

Like-named read-outs stand apart in the source and are kept apart here. Bounds are passed on as bounds.

The target in one assay is T1, His6-TEV-PPARγ-(234-505) (Homo sapiens, UniProt P37231).
T1 construct: The His6-TEV-PPARγ-(234-505) protein for assay was expressed and purified; TEV cleavage site (N); made in house
T1 sequence (P37231 234-505): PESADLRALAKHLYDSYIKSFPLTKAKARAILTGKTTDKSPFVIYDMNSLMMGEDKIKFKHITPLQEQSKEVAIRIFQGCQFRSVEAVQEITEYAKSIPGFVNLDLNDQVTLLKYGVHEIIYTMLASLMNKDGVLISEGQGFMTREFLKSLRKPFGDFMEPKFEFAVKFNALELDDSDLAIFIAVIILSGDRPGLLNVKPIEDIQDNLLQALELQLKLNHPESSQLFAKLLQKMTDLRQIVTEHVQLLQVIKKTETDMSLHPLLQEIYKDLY
Description: TR-FRET Assay to Measure Co-R Peptide Recruitment to PPARγ. The class given is biochemical. Conditions: Co-R peptide (SMRT-ID2) recruitment; top final concentration 20 μM; read-out: TR-FRET i-Ag; AC50. An outline of the steps: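 His-tagged PPARγ (or controls) was preincubated with compound for 20 minutes at room temperature, then 5 nM anti-His terbium antibody and 200 nM FITC-labeled SMRT-ID2 corepressor peptide (final) were added for a further hour. TR-FRET signal was normalized to percent response using 500 nM T0070907 and DMSO controls.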

In the next assay the test system is UM-UC-9 engineered cells. Description: Cell proliferation / short-term viability assay, CellTiter-Glo 144 h. The class given is cell-based, human. Conditions: read-out: CTGlo 144 h UMUC9.5, G150. An outline of the steps: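 UM-UC-9 engineered assay-ready cells seeded at 500 cells/well in high-glucose DMEM/10% FBS, treated from dose-response plates, grown at 37° C, 5% CO2. CellTiter-Glo 2.0 luminescence read on day 7, with a day-0 pretreatment plate as T0 reference and DMSO wells as negative control.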

Turning to `COc1cc(-c2cc(C(=O)N3CC[C@H](C(=O)NCc4nccn4C(F)(F)F)CC34CC4)[nH]n2)c(F)cn1` [Example 519, (S)-4-(3-(5-fluoro-2-methoxypyridin-4-yl)-1H-pyrazole-5-carbonyl)-N-((1-(trifluoromethyl)-H-imidazol-2-yl)methy)-4-azaspiro[2.5]octane-7-carboxamide], at His6-TEV-PPARγ-(234-505), the AC50 amounted to 4.3 nM. Further, in the assay on UM-UC-9 engineered cells (Homo sapiens, UM-UC-9, 144 h), the IC50 is 19.1 nM.
As for `COc1cc(-c2cc(C(=O)N3CC[C@H](C(=O)NC4CCN(c5ccnc6[nH]ncc56)C4)CC34CC4)n[nH]2)c(F)cn1` (single isomer, unassigned) [Example 450-B], the AC50 at His6-TEV-PPARγ-(234-505) turned out to be 6.8 nM. The IC50 with UM-UC-9 engineered cells is 834 nM.
For the compound `COc1cc(-c2cc(C(=O)N3CCC(C(=O)NCc4ccc(C)cn4)CC3)n[nH]2)c(Cl)cn1` [Example 176, 1-(5-(5-chloro-2-methoxypyridin-4-yl)-1H-pyrazole-3-carbonyl)-N-((5-methylpyridin-2-yl)methyl)piperidine-4-carboxamide], the AC50 on His6-TEV-PPARγ-(234-505) was 376 nM. Further, the IC50 with UM-UC-9 engineered cells (Homo sapiens, UM-UC-9, 144 h) turned out to be 1840 nM.
Turning to `COc1cc(-c2cc(C(=O)N3CC[C@H](C(=O)NC4CCC(CO)(C(F)(F)F)CC4)CC34CC4)n[nH]2)c(F)cn1` (single isomer, unassigned) [Example 408-A], the AC50 on His6-TEV-PPARγ-(234-505) is 4.5 nM. The IC50 in the assay on UM-UC-9 engineered cells stood at 3.9 nM.
Take `COc1cc(-c2cc(C(=O)N3CC[C@H](C(=O)NCc4cn(C)nc4C(F)(F)F)CC34CC4)[nH]n2)c(F)cn1` [Example 509, (S)-4-(3-(5-fluoro-2-methoxypyridin-4-yl)-1H-pyrazole-5-carbonyl)-N-((1-methyl-3-(trifluoromethyl)-1H-pyrazol-4-yl)methyl)-4-azaspiro[2.5]octane-7-carboxamide]: the AC50 on His6-TEV-PPARγ-(234-505) came out at 4.2 nM. Moreover, the IC50 in the assay with UM-UC-9 engineered cells (Homo sapiens, UM-UC-9, 144 h) was 7 nM.
For the compound `COc1cc(-c2cc(C(=O)N3CCC(C(=O)NC4CCN(C5COC56CCC6)C4)CC34CC4)n[nH]2)c(F)cn1` (mixture of isomers) [Example 464], the AC50 at His6-TEV-PPARγ-(234-505) was 9.3 nM. For the same compound, in the assay with UM-UC-9 engineered cells, the IC50 is 36.4 nM.
As for `COc1cc(-c2cc(C(=O)N3CCC(C(=O)NCc4nccc5[nH]ccc45)CC3)n[nH]2)c(Cl)cn1` [Example 254, N-((1H-pyrrolo[3,2-c]pyridin-4-yl)methyl)-1-(5-(5-chloro-2-methoxypyridin-4-yl)-1H-pyrazole-3-carbonyl)piperidine-4-carboxamide], the AC50 on His6-TEV-PPARγ-(234-505) was 58.8 nM. Besides, the IC50 with UM-UC-9 engineered cells (Homo sapiens, UM-UC-9, 144 h) was above 2000 nM.
Consider `COc1cc(-c2cc(C(=O)N3CC[C@H](C(=O)NCc4cccnc4C(F)(F)F)CC34CC4)[nH]n2)c(F)cn1` [Example 513, (S)-4-(3-(5-fluoro-2-methoxypyridin-4-yl)-1H-pyrazole-5-carbonyl)-N-((2-(trifluoromethyl)pyridin-3-yl)methyl)-4-azaspiro[2.5]octane-7-carboxamide], for which the AC50 at His6-TEV-PPARγ-(234-505) stood at 6.1 nM. Moreover, in the assay on UM-UC-9 engineered cells, the IC50 was 15.4 nM.
As to “(S)—N-((1s,4R)-4-(1,1-difluoroethyl)-4-hydroxycyclohexyl)-4-(5-(5-fluoro-2-methoxypyridin-4-yl)-1H-pyrazole-3-carbonyl)-4-azaspiro[2.5]octane-7-carboxamide and (S)—N-((1r,4S)-4-(1,1-difluoroethyl)-4-hydroxycyclohexyl)-4-(5-(5-fluoro-2-methoxypyridin-4-yl)-1H-pyrazole-3-carbonyl)-4-azaspiro[2.5]octane-7-carboxamide [Example 375]”, the AC50 on His6-TEV-PPARγ-(234-505) was 6.4 nM. The IC50 with UM-UC-9 engineered cells worked out at 1.6 nM.
`CCO[C@]1(C(F)(F)F)CC[C@H](NC(=O)[C@H]2CCN(C(=O)c3cc(-c4cc(C)ncn4)[nH]n3)C3(CC3)C2)CC1` (single isomer, unassigned) [Example 308-D]: the AC50 at His6-TEV-PPARγ-(234-505) was found to be 25.6 nM. The IC50 with UM-UC-9 engineered cells (Homo sapiens, UM-UC-9, 144 h) came out at 192 nM.
